Assay type in all cases: functional
Test [1] is described as follows: Growth inhibition of human Hs 578T cells assessed as cell growth at 0.1 uM after 48 hrs by SRB assay. Particulars: read-out: Activity.
Test [2] deals with K562. The test can be described thus: Growth inhibition of human K562 cells after 48 hrs by […] growth inhibition assay. To be noted: K562, 48 h.
A short description of test [3]: Growth inhibition of human Hs 578T cells assessed as cell growth at 1 mM after 48 hrs by SRB assay. Particulars: read-out: Activity. Background: The SRB assay estimates cell density from bound dye.
A further test relates to SR. The test can be described thus: Growth inhibition of human SR cells assessed as cell growth at 1 uM after 48 hrs by SRB assay. To be noted: read-out: Activity.
Test [4] has as its system HL-60(TB). The test can be described thus: Growth inhibition of human HL-60(TB) cells assessed as cell growth at 1 uM after 48 hrs by SRB assay. To be noted: HL-60, 48 h, read-out: Activity.
Test [5] concerns HL-60(TB). The test is described as follows: Growth inhibition of human HL-60(TB) cells after 48 hrs by […] growth inhibition assay. To be noted: HL-60, 48 h.
The subject of test [6] is MOLT-4. The test can be described thus: Growth inhibition of human MOLT4 cells assessed as cell growth at 1 mM after 48 hrs by SRB assay. To be noted: MOLT-4, 48 h, read-out: Activity.
Test [7] concerns K562. The test can be described thus: Growth inhibition of human K562 cells assessed as cell growth at 100 uM after 48 hrs by SRB assay. Particulars: K562, 48 h, read-out: Activity.
Another test relates to SK-MEL-28. The test is described as follows: Growth inhibition of human SK-MEL-28 cells assessed as cell growth at 1 mM after 48 hrs by SRB assay. To be noted: SK-MEL-28, 48 h, read-out: Activity.
The subject of test [8] is MOLT-4. The test can be described thus: Growth inhibition of human MOLT4 cells after 48 hrs by […] growth inhibition assay. Particulars: MOLT-4, 48 h.
Test [9] concerns HL-60(TB). The test can be described thus: Growth inhibition of human HL-60(TB) cells assessed as cell growth at 1 mM after 48 hrs by SRB assay. Particulars: HL-60, 48 h, read-out: Activity.
The subject of test [10] is MDA-MB-468. The test can be described thus: Growth inhibition of human MDA-MB-468 cells assessed as cell growth at 1 mM after 48 hrs by SRB assay. Particulars: MDA-MB-468, 48 h, read-out: Activity.
In test [11] the test system is MDA-MB-468. The test can be described thus: Growth inhibition of human MDA-MB-468 cells assessed as cell growth at 100 uM after 48 hrs by SRB assay. To be noted: MDA-MB-468, 48 h, read-out: Activity.
Test [12] deals with MDA-MB-468. The test is described as follows: Growth inhibition of human MDA-MB-468 cells assessed as cell growth at 0.1 uM after 48 hrs by SRB assay. Particulars: MDA-MB-468, 48 h, read-out: Activity.
Test [13] concerns MDA-MB-468. The test can be described thus: Growth inhibition of human MDA-MB-468 cells assessed as cell growth at 1 uM after 48 hrs by SRB assay. To be noted: MDA-MB-468, 48 h, read-out: Activity.
Where [14] appears, read: read-out: LC50 (the source's name).
The mark [15] stands for this setting: read-out: pLC50 (the source's name) (converted).

Turning to `CCOC(=O)C[C@H]1[C@@H](O[Si](C)(C)C(C)(C)C)[C@H](n2cnc3c(NC(=O)Nc4ccccc4)ncnc32)O[C@@H]1CNC(=O)NC`, the growth at 0.1 µM in test [1] was 94%. In addition, the GI50 in the test on K562 [2] (read-out: GI50) is 3.59 µM; in the test on K562 [2] (read-out: pGI50 (converted)), 3.63 µM; in the test with HL-60(TB) [5] (read-out: GI50), 3.01 µM; in the test on HL-60(TB) [5] (read-out: pGI50 (converted)), 3.02 µM; with MOLT-4 [8] (read-out: GI50), 2.39 µM; in the test on MOLT-4 [8] (read-out: pGI50 (converted)) it was 2.4 µM. For the same molecule, the LC50 (concentration killing 50% of cells) with K562 [2] (read-out: LC50) and with K562 [2] (read-out: pLC50 (converted)) was more than 100 µM throughout. In addition, the TGI in the test on K562 [2] (read-out: TGI) is 32.9 µM; in the test on K562 [2] (read-out: pTGI (converted)), 33.1 µM; in the test on MOLT-4 [8] (read-out: TGI), 23.3 µM; in the test on MOLT-4 [8] (read-out: pTGI (converted)) it was 23.4 µM. Also, the growth at 1000 µM in test [3] was -7%; in the test with MOLT-4 [6] it was -14%; in the test on SK-MEL-28, -91%; in the test on HL-60(TB) [9] it was 22%. The growth at 1 µM with SR was 70%; in the test with HL-60(TB) [4], 110%. The CC50 in the test with HL-60(TB) [5] (setting [14]) and in the test with HL-60(TB) [5] (setting [15]) was more than 100 µM throughout. The growth at 100 µM in the test with K562 [7] is 19%. Moreover, the LC50 in the test on MOLT-4 [8] (read-out: LC50) and in the test with MOLT-4 [8] (read-out: pLC50 (converted)) was more than 100 µM throughout.

Regarding `CNC(=O)NC[C@H]1O[C@@H](n2cnc3c(NC(=O)Nc4ccccc4)ncnc32)[C@H](O[Si](C)(C)C(C)(C)C)[C@@H]1O[Si](C)(C)C(C)(C)C`, the growth at 1000 µM in the test with MDA-MB-468 [10] was -35%. The growth at 100 µM with MDA-MB-468 [11] turned out to be 6%. In the test on MDA-MB-468 [12], the growth at 0.1 µM was found to be 101%. Besides, in the test with MDA-MB-468 [13], the growth at 1 µM is 104%.

As to `CNC(=O)NC[C@H]1O[C@@H](n2cnc3c(NC(=O)Nc4ccccc4)ncnc32)[C@H](O[Si](C)(C)C(C)(C)C)[C@@H]1CC(=O)N(C)OC`, the growth at 0.1 µM in test [1] turned out to be 98%. Further, the GI50 in the test with K562 [2] (read-out: GI50) is 3.12 µM; with K562 [2] (read-out: pGI50 (converted)) it was 3.09 µM; in the test on HL-60(TB) [5] (read-out: GI50) it was 1.81 µM; with HL-60(TB) [5] (read-out: pGI50 (converted)), 1.82 µM; in the test with MOLT-4 [8] (read-out: GI50) it was 2.13 µM; in the test with MOLT-4 [8] (read-out: pGI50 (converted)) it was 2.24 µM. The LC50 (concentration killing 50% of cells) in the test with K562 [2] (read-out: LC50) and with K562 [2] (read-out: pLC50 (converted)) was more than 100 µM in each case. Moreover, the TGI in the test on K562 [2] (read-out: TGI) is more than 100 µM; in the test on K562 [2] (read-out: pTGI (converted)) it was more than 100 µM; in the test with HL-60(TB) [5] (read-out: TGI) it was 4.34 µM; in the test with HL-60(TB) [5] (read-out: pTGI (converted)), 4.37 µM; in the test with MOLT-4 [8] (read-out: TGI), 9.36 µM; in the test with MOLT-4 [8] (read-out: pTGI (converted)) it was 9.33 µM. The growth at 1000 µM in test [3] was 12%; in the test on MOLT-4 [6] it was -5%; in the test on SK-MEL-28, 27%; in the test with HL-60(TB) [9] it was -58%. Further, the growth at 1 µM in the test on SR was 89%; in the test on HL-60(TB) [4], 86%. The CC50 was more than 100 µM in the test on HL-60(TB) [5] (setting [14]) and 16.2 µM with HL-60(TB) [5] (setting [15]). Further, the growth at 100 µM in the test on K562 [7] was found to be 17%. Moreover, the LC50 in the test on MOLT-4 [8] (read-out: LC50) and with MOLT-4 [8] (read-out: pLC50 (converted)) was more than 100 µM in each case.

Values taken from ChEMBL document CHEMBL1681651, “A broad spectrum anticancer nucleoside with selective toxicity against human colon cells in vitro” (2011).
